Measurements as given in ChEMBL document CHEMBL4507316 (2021).
Activity calls are given as the source filed them. The rule behind the calls is not given here.

How the values were obtained:
[1] = system: Tyrosine-protein kinase ABL1 (Homo sapiens), P00519 [G250E]; assay: ABL1 G250E ProQinase selectivity panel; details: Compound concentration 1.0 uM
[2] = biological target: Tyrosine-protein kinase BTK (Homo sapiens) (UniProt Q06187); assay: BTK ProQinase selectivity panel; details: Compound concentration 1.0 uM
[3] = biological target: Serine/threonine-protein kinase Nek6 (Homo sapiens) (UniProt Q9HC98); assay: NEK6 ProQinase selectivity panel; details: Compound concentration 1.0 uM
[4] = biological target: Serine/threonine-protein kinase TAO2 (Homo sapiens) (UniProt Q9UL54); assay: TAOK2 ProQinase selectivity panel; details: Compound concentration 1.0 uM
[5] = system: Hepatocyte growth factor receptor (Homo sapiens), P08581 [M1250T]; assay: MET M1250T ProQinase selectivity panel; details: Compound concentration 1.0 uM
[6] = system: Receptor-type tyrosine-protein kinase FLT3 (Homo sapiens), P36888 [UNDEFINED MUTATION]; assay: FLT3 ITD ProQinase selectivity panel; details: Compound concentration 1.0 uM
[7] = biological target: G protein-coupled receptor kinase 3 (Homo sapiens) (UniProt P35626); assay: GRK3 ProQinase selectivity panel; details: Compound concentration 1.0 uM
[8] = biological target: Mitogen-activated protein kinase kinase kinase kinase 4 (Homo sapiens) (UniProt O95819); assay: MAP4K4 ProQinase selectivity panel; details: Compound concentration 1.0 uM
[9] = biological target: Testis-specific serine/threonine-protein kinase 1 (Homo sapiens) (UniProt Q9BXA7); assay: TSSK1 ProQinase selectivity panel; details: Compound concentration 1.0 uM
[10] = biological target: CDK1/Cyclin E (Homo sapiens) (UniProt P06493+P24864); assay: CDK1/CycE ProQinase selectivity panel; format: protein-complex assay; details: Compound concentration 1.0 uM
[11] = biological target: Sodium-dependent noradrenaline transporter (Homo sapiens) (UniProt P23975); details: Compound concentration 10.0 uM
[12] = biological target: Mitogen-activated protein kinase 11 (Homo sapiens, UniProt Q15759); assay: NanoBRET (MAPK11)
[13] = biological target: Aurora kinase C (Homo sapiens) (UniProt Q9UQB9); assay: Aurora-C ProQinase selectivity panel; details: Compound concentration 1.0 uM
[14] = system: Hepatocyte growth factor receptor (Homo sapiens), P08581 [Y1235D]; assay: MET Y1235D ProQinase selectivity panel; details: Compound concentration 1.0 uM
[15] = biological target: Receptor-type tyrosine-protein kinase FLT3 (Homo sapiens) (UniProt P36888); assay: FLT3 wt ProQinase selectivity panel; details: Compound concentration 1.0 uM
[16] = biological target: Serine/threonine-protein kinase 4 (Homo sapiens) (UniProt Q13043); assay: MST1 ProQinase selectivity panel; details: Compound concentration 1.0 uM
[17] = biological target: 5-hydroxytryptamine receptor 1D (Homo sapiens) (UniProt P28221); details: Compound concentration 10.0 uM
[18] = biological target: Casein kinase I isoform gamma-1 (Homo sapiens) (UniProt Q9HCP0); assay: CK1-gamma1 ProQinase selectivity panel; details: Compound concentration 1.0 uM
[19] = biological target: Muscarinic acetylcholine receptor M5 (Homo sapiens) (UniProt P08912); details: Compound concentration 10.0 uM
[20] = biological target: MAP kinase-activated protein kinase 3 (Homo sapiens) (UniProt Q16644); assay: MAPKAPK3 ProQinase selectivity panel; details: Compound concentration 1.0 uM
[21] = biological target: Delta-type opioid receptor (Homo sapiens) (UniProt P41143); details: Compound concentration 10.0 uM
[22] = biological target: MAP kinase-activated protein kinase 5 (Homo sapiens) (UniProt Q8IW41); assay: MAPKAPK5 ProQinase selectivity panel; details: Compound concentration 1.0 uM
[23] = biological target: LIM domain kinase 2 (Homo sapiens) (UniProt P53671); assay: LIMK2 ProQinase selectivity panel; details: Compound concentration 1.0 uM
[24] = system: Mast/stem cell growth factor receptor Kit (Homo sapiens), P10721 [T670I]; assay: KIT T670I ProQinase selectivity panel; details: Compound concentration 1.0 uM
[25] = biological target: Tyrosine-protein kinase FRK (Homo sapiens) (UniProt P42685); assay: FRK ProQinase selectivity panel; details: Compound concentration 1.0 uM
[26] = biological target: Death-associated protein kinase 3 (Homo sapiens) (UniProt O43293); assay: DAPK3 ProQinase selectivity panel; details: Compound concentration 1.0 uM
[27] = biological target: Serine/threonine-protein kinase haspin (Homo sapiens) (UniProt Q8TF76); assay: GSG2 ProQinase selectivity panel; details: Compound concentration 1.0 uM
[28] = biological target: Vascular endothelial growth factor receptor 3 (Homo sapiens) (UniProt P35916); assay: VEGF-R3 ProQinase selectivity panel; details: Compound concentration 1.0 uM
[29] = biological target: Death-associated protein kinase 1 (Homo sapiens) (UniProt P53355); assay: DAPK1 ProQinase selectivity panel; details: Compound concentration 1.0 uM
[30] = biological target: Tyrosine-protein kinase Fer (Homo sapiens) (UniProt P16591); assay: FER ProQinase selectivity panel; details: Compound concentration 1.0 uM
[31] = biological target: Serine/threonine-protein kinase N2 (Homo sapiens) (UniProt Q16513); assay: PRK2 ProQinase selectivity panel; details: Compound concentration 1.0 uM
[32] = biological target: Insulin receptor (Homo sapiens) (UniProt P06213); assay: INS-R ProQinase selectivity panel; details: Compound concentration 1.0 uM
[33] = biological target: Rho-associated protein kinase 2 (Homo sapiens) (UniProt O75116); assay: ROCK2 ProQinase selectivity panel; details: Compound concentration 1.0 uM
[34] = biological target: Serine/threonine-protein kinase 33 (Homo sapiens) (UniProt Q9BYT3); assay: STK33 ProQinase selectivity panel; details: Compound concentration 1.0 uM
[35] = biological target: cGMP-dependent protein kinase 2 (Homo sapiens) (UniProt Q13237); assay: PRKG2 ProQinase selectivity panel; details: Compound concentration 1.0 uM
[36] = biological target: Sigma intracellular receptor 2 (Homo sapiens, UniProt Q5BJF2); details: Compound concentration 10.0 uM
[37] = biological target: Casein kinase I isoform alpha (Homo sapiens) (UniProt P48729); assay: CK1-alpha1 ProQinase selectivity panel; details: Compound concentration 1.0 uM
[38] = system: Epidermal growth factor receptor (Homo sapiens), P00533 [UNDEFINED MUTATION]; assay: EGF-R d747-752/P753S ProQinase selectivity panel; details: Compound concentration 1.0 uM
[39] = biological target: Receptor tyrosine-protein kinase erbB-4 (Homo sapiens) (UniProt Q15303); assay: ERBB4 ProQinase selectivity panel; details: Compound concentration 1.0 uM
[40] = system: Epidermal growth factor receptor (Homo sapiens), P00533 [L861Q]; assay: EGF-R L861Q ProQinase selectivity panel; details: Compound concentration 1.0 uM
[41] = system: Hepatocyte growth factor receptor (Homo sapiens), P08581 [Y1230A]; assay: MET Y1230A ProQinase selectivity panel; details: Compound concentration 1.0 uM
[42] = biological target: Calcium/calmodulin-dependent protein kinase type 1D (Homo sapiens) (UniProt Q8IU85); assay: CAMK1D ProQinase selectivity panel; details: Compound concentration 1.0 uM
[43] = biological target: Ephrin type-A receptor 1 (Homo sapiens) (UniProt P21709); assay: EPHA1 ProQinase selectivity panel; details: Compound concentration 1.0 uM
[44] = biological target: Myosin light chain kinase, smooth muscle (Homo sapiens) (UniProt Q15746); assay: MYLK ProQinase selectivity panel; details: Compound concentration 1.0 uM
[45] = biological target: Dual specificity protein kinase CLK2 (Homo sapiens) (UniProt P49760); assay: CLK2 ProQinase selectivity panel; details: Compound concentration 1.0 uM
[46] = biological target: Calcium/calmodulin-dependent protein kinase type IV (Homo sapiens) (UniProt Q16566); assay: CAMK4 ProQinase selectivity panel; details: Compound concentration 1.0 uM
[47] = biological target: Macrophage colony-stimulating factor 1 receptor (Homo sapiens) (UniProt P07333); assay: CSF1-R ProQinase selectivity panel; details: Compound concentration 1.0 uM
[48] = biological target: Casein kinase I isoform epsilon (Homo sapiens) (UniProt P49674); assay: CK1-epsilon ProQinase selectivity panel; details: Compound concentration 1.0 uM
[49] = biological target: Heat shock protein beta-1 (Homo sapiens, UniProt P04792); assay: Inhibition of HSP27 (Ser82) (Western blot)
Chain of Heat shock protein beta-1 (P04792 whole entry): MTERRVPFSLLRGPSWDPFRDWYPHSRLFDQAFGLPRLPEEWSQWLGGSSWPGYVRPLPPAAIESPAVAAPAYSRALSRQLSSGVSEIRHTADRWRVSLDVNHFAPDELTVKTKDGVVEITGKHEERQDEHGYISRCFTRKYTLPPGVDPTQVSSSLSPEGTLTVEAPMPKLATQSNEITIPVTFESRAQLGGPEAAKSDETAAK

Chain of Sigma intracellular receptor 2 (Q5BJF2 whole entry, canonical isoform): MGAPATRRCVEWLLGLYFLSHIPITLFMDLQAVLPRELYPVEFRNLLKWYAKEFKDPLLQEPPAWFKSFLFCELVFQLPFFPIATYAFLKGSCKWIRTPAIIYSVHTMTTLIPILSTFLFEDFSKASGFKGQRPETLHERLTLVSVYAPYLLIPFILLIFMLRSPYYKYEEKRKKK
Chain of MAP kinase-activated protein kinase 5 (Homo sapiens) (Q8IW41 whole entry, the tested form may be a part): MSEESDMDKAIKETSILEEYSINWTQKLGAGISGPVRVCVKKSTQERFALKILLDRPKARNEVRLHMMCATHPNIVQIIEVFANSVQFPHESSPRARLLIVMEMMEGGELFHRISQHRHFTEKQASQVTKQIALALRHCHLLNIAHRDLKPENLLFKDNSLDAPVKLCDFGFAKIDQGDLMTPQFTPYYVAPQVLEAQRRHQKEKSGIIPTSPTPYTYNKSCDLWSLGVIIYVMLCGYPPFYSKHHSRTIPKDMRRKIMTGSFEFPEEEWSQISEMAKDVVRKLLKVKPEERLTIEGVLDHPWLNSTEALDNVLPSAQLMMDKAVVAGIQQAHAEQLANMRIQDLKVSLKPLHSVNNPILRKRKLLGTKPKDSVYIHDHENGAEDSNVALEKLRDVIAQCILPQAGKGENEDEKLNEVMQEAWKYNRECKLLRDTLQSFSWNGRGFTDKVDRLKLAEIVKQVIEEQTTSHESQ
Chain of Death-associated protein kinase 3 (Homo sapiens) (O43293 whole entry, looked up): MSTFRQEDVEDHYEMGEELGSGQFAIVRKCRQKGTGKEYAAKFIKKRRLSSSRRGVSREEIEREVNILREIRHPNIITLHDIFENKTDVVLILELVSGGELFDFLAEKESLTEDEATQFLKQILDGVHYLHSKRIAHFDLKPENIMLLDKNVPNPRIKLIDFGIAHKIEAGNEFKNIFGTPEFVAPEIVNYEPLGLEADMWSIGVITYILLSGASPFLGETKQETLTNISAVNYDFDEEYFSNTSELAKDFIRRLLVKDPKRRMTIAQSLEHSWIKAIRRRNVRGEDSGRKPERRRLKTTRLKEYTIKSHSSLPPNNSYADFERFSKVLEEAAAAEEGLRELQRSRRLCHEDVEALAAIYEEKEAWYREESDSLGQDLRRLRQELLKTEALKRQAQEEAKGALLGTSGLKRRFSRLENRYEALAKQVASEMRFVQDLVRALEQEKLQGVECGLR
Chain of CDK1/Cyclin E (Homo sapiens) (P06493 whole entry, looked up): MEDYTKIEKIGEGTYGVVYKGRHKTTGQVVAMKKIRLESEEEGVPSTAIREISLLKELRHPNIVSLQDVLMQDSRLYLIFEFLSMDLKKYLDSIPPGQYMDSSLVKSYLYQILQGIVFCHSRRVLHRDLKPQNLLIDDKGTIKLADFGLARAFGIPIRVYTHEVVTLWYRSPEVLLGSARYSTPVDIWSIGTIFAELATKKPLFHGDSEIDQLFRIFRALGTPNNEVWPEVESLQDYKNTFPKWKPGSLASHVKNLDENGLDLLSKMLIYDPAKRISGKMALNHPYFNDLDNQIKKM
Chain of CDK1/Cyclin E (Homo sapiens) (P24864 whole entry, looked up): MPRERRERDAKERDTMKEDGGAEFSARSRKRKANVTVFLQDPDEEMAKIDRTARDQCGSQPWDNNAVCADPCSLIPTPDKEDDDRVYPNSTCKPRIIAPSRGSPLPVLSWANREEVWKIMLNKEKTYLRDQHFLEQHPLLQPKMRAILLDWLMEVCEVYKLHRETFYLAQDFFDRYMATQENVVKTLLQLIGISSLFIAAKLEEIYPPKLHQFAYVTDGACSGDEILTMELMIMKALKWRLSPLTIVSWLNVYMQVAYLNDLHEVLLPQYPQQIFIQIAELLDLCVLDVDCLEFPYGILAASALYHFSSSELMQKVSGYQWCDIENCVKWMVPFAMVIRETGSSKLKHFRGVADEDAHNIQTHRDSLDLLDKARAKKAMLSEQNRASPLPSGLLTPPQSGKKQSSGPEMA
Chain of G protein-coupled receptor kinase 3 (Homo sapiens) (P35626 whole entry): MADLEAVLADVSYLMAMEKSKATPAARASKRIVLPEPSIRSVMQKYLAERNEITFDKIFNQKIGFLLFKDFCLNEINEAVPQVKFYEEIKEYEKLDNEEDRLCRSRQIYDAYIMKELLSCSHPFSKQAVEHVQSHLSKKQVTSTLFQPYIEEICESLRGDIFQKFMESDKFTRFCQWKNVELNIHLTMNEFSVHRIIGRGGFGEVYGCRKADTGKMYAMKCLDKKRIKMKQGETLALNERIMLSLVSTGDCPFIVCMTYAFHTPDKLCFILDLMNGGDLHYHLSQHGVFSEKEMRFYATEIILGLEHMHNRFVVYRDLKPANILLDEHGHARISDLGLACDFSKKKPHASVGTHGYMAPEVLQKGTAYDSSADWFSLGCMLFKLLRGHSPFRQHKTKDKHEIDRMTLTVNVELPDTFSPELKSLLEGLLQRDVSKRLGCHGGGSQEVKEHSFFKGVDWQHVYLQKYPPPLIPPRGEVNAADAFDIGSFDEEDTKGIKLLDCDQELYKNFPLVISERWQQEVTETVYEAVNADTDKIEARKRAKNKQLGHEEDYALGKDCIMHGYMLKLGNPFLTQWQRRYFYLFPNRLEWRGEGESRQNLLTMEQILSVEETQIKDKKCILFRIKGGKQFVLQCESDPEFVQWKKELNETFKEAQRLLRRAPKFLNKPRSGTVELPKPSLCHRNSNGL
Chain of Casein kinase I isoform alpha (Homo sapiens) (P48729 2-337 limits assumed): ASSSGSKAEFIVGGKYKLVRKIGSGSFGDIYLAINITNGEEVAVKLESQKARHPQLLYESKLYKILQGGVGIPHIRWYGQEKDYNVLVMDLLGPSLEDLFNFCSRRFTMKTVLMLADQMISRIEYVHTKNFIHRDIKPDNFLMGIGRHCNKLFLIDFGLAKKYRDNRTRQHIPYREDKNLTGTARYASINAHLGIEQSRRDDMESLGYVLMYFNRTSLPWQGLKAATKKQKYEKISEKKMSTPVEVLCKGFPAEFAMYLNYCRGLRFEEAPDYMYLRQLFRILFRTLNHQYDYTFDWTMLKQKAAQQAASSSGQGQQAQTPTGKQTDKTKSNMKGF
Chain of Ephrin type-A receptor 1 (Homo sapiens) (P21709 whole entry): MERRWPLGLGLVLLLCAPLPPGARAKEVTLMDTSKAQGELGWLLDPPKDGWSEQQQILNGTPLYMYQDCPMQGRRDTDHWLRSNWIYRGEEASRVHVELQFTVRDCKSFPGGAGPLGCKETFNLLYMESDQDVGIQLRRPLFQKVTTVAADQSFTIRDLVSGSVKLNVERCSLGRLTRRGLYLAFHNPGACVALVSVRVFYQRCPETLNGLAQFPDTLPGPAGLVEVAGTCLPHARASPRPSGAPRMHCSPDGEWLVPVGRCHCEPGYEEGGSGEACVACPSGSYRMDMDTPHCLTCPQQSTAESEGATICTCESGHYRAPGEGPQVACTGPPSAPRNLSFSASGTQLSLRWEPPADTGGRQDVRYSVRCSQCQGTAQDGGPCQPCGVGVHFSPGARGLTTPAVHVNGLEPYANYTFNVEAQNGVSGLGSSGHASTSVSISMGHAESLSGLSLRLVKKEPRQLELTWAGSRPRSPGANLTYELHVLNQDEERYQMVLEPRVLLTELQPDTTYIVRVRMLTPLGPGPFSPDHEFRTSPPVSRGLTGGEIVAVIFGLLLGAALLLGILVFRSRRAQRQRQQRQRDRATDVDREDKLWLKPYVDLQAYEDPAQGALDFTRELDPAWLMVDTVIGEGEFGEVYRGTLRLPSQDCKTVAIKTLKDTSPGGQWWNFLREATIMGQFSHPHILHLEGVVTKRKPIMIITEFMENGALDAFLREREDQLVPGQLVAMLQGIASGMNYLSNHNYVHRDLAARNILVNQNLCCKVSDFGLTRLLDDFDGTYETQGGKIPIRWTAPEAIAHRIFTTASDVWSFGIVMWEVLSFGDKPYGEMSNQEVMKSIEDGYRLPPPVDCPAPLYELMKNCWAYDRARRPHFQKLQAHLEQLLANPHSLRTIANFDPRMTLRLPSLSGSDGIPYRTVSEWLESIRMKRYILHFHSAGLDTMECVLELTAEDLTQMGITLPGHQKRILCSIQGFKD
Chain of Casein kinase I isoform gamma-1 (Homo sapiens) (Q9HCP0 whole entry, looked up, canonical isoform): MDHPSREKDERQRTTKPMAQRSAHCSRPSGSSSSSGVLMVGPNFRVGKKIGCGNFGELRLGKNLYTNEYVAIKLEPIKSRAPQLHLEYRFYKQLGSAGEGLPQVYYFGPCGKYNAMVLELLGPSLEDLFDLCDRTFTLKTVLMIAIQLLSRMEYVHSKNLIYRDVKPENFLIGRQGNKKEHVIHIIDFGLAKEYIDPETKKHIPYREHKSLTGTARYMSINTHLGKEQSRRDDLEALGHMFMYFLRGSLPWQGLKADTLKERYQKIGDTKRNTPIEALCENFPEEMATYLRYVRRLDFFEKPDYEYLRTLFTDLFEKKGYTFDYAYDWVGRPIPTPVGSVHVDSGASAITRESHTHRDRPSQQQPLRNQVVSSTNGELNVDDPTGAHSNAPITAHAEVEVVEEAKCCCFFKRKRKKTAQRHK
Chain of Serine/threonine-protein kinase 33 (Homo sapiens) (Q9BYT3 whole entry, looked up): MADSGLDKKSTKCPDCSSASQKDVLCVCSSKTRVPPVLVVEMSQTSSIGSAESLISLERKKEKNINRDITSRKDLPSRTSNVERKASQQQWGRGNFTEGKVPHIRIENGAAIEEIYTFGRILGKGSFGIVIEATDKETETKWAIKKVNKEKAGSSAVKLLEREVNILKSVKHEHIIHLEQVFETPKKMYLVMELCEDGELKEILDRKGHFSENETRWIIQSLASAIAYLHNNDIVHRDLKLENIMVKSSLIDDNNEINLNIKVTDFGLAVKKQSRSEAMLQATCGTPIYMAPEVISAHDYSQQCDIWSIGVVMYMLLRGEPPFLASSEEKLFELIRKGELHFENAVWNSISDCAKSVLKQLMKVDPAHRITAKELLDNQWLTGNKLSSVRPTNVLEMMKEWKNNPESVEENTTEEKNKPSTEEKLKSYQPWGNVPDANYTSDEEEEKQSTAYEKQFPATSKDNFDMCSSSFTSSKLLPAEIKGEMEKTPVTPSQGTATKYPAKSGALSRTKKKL

**Q.** O=C1c2ccc(Nc3ccc(F)cc3F)cc2CCc2ccc(OC[C@H](O)CO)cc21 [Skepinone-L] was tested. Which % Residual activity with Skepinone-L [1] did it give?
**A.** 97%

**Q.** What about the % Residual activity with Skepinone-L [2] of the same compound?
**A.** 100%

**Q.** What about the % Residual activity with Skepinone-L [3] of the same compound?
**A.** 97%

**Q.** What about the % Residual activity with Skepinone-L [4] of the same compound?
**A.** 102%

**Q.** What about the % Residual activity with Skepinone-L [5] of the same compound?
**A.** 100%

**Q.** And the % Residual activity with Skepinone-L [6]?
**A.** 101%

**Q.** And the % Residual activity with Skepinone-L [7]?
**A.** 95%

**Q.** And the % Residual activity with Skepinone-L [8]?
**A.** 79%

**Q.** What about the % Residual activity with Skepinone-L [9] of the same compound?
**A.** 90%

**Q.** What about the % Residual activity with Skepinone-L [10] of the same compound?
**A.** 87%

**Q.** And the inhibition [11]?
**A.** 29.4%

**Q.** And the IC50 [12]?
**A.** 40.2 nM (active)

**Q.** And the % Residual activity with Skepinone-L [13]?
**A.** 85%

**Q.** What about the % Residual activity with Skepinone-L [14] of the same compound?
**A.** 114%

**Q.** What about the % Residual activity with Skepinone-L [15] of the same compound?
**A.** 106%

**Q.** What about the % Residual activity with Skepinone-L [16] of the same compound?
**A.** 71%

**Q.** And the inhibition [17]?
**A.** 23.8%

**Q.** And the % Residual activity with Skepinone-L [18]?
**A.** 97%

**Q.** What about the inhibition [19] of the same compound?
**A.** -9.46%

**Q.** And the % Residual activity with Skepinone-L [20]?
**A.** 95%

**Q.** And the inhibition [21]?
**A.** 10.3%

**Q.** What about the % Residual activity with Skepinone-L [22] of the same compound?
**A.** 97%

**Q.** What about the % Residual activity with Skepinone-L [23] of the same compound?
**A.** 100%

**Q.** What about the % Residual activity with Skepinone-L [24] of the same compound?
**A.** 145%

**Q.** And the % Residual activity with Skepinone-L [25]?
**A.** 111%

**Q.** What about the % Residual activity with Skepinone-L [26] of the same compound?
**A.** 89%

**Q.** And the % Residual activity with Skepinone-L [27]?
**A.** 82%

**Q.** What about the % Residual activity with Skepinone-L [28] of the same compound?
**A.** 100%

**Q.** And the % Residual activity with Skepinone-L [29]?
**A.** 86%

**Q.** And the % Residual activity with Skepinone-L [30]?
**A.** 101%

**Q.** And the % Residual activity with Skepinone-L [31]?
**A.** 95%

**Q.** And the % Residual activity with Skepinone-L [32]?
**A.** 101%

**Q.** What about the % Residual activity with Skepinone-L [33] of the same compound?
**A.** 90%

**Q.** And the % Residual activity with Skepinone-L [34]?
**A.** 94%

**Q.** And the % Residual activity with Skepinone-L [35]?
**A.** 94%

**Q.** And the inhibition [36]?
**A.** 53.1%

**Q.** What about the % Residual activity with Skepinone-L [37] of the same compound?
**A.** 97%

**Q.** What about the % Residual activity with Skepinone-L [38] of the same compound?
**A.** 93%

**Q.** What about the % Residual activity with Skepinone-L [39] of the same compound?
**A.** 106%

**Q.** What about the % Residual activity with Skepinone-L [40] of the same compound?
**A.** 94%

**Q.** What about the % Residual activity with Skepinone-L [41] of the same compound?
**A.** 91%

**Q.** What about the % Residual activity with Skepinone-L [42] of the same compound?
**A.** 106%

**Q.** What about the % Residual activity with Skepinone-L [43] of the same compound?
**A.** 115%

**Q.** What about the % Residual activity with Skepinone-L [44] of the same compound?
**A.** 78%

**Q.** What about the % Residual activity with Skepinone-L [45] of the same compound?
**A.** 89%

**Q.** And the % Residual activity with Skepinone-L [46]?
**A.** 111%

**Q.** What about the % Residual activity with Skepinone-L [47] of the same compound?
**A.** 106%

**Q.** What about the % Residual activity with Skepinone-L [48] of the same compound?
**A.** 86%

**Q.** And the IC50 [49]?
**A.** 25 nM (active)
